{
  "source": "patent US10927398B2",
  "about": "“Compositions for CYP450 phenotyping using saliva samples” (Concordia University, Inc., priority 2015, dated 2021)",
  "origin": "cited, not measured here",
  "key": {"plasma protein": {"system": "plasma protein", "details": "cited from earlier work"}, "[1]": {"details": "cited from earlier work"}, "[2]": {"details": "Table of Exemplary Drugs, CYP1A2"}, "[3]": {"details": "Table of Exemplary Drugs, CYP2C19"}, "[4]": {"details": "Table of Exemplary Drugs, CYP3A4"}, "[5]": {"details": "Table of Exemplary Drugs, CYP2D6"}, "[6]": {"details": "Table of Exemplary Drugs, CYP2C9"}},
  "note": "Like-named read-outs stand apart in the source and are kept apart here.",
  "data": [
    {"compound": "CC(c1cc2ccccc2s1)N(O)C(N)=O", "note": "(stereo not shown) [Zileuton]", "values": [
      {"measurement": "PLASMA PROTEIN BINDING", "setting": "plasma protein; [2]", "result": 93, "unit": "%"},
      {"measurement": "HALF-LIFE", "setting": "[1]; [2]", "result": "2.5 to 3.2", "unit": "h"}
    ]},
    {"compound": "CC1(C)NC(=O)N(c2ccc([N+](=O)[O-])c(C(F)(F)F)c2)C1=O", "note": "[Nilutamide]", "values": [
      {"measurement": "PLASMA PROTEIN BINDING", "setting": "plasma protein; [3]", "result": "80-84% ^"},
      {"measurement": "HALF-LIFE", "setting": "[1]; [3]", "result": "38 to 59.1", "unit": "h"}
    ]},
    {"compound": "CC[C@H](O)C(C[C@H](C)N(C)C)(c1ccccc1)c1ccccc1", "note": "[Levomethadyl (Orlaam), Levomethadyl]", "values": [
      {"measurement": "PLASMA PROTEIN BINDING", "setting": "plasma protein; [4]", "result": 80, "unit": "%"},
      {"measurement": "HALF-LIFE", "setting": "[1]; in vivo", "result": "35 to 60", "unit": "h"}
    ]},
    {"compound": "CN[C@@H](C)Cc1ccccc1", "note": "[Dextromethamphetamine]", "values": [
      {"measurement": "HALF-LIFE", "setting": "[1]; [5]", "result": 12, "unit": "h"}
    ]},
    {"compound": "O=C(CCCN1CC=C(n2c(=O)[nH]c3ccccc32)CC1)c1ccc(F)cc1", "note": "[Droperidol]", "values": [
      {"measurement": "HALF-LIFE", "setting": "[1]; [4]", "result": 2, "unit": "h"}
    ]},
    {"compound": "CN(C)C[C@H]1CCCC[C@]1(O)c1cccc(O)c1", "note": "[O-desmethyltramadol]", "values": [
      {"measurement": "HALF-LIFE", "setting": "[1]; [5]", "result": 9, "unit": "h"}
    ]},
    {"compound": "Cc1cc(-c2ccccc2)nnc1NCCN1CCOCC1", "note": "[Minaprine]", "values": [
      {"measurement": "HALF-LIFE", "setting": "[1]; [5]", "result": "2 to 2.5", "unit": "h"}
    ]},
    {"compound": "O=C1CCc2ccc(OCCCCN3CCN(c4cccc(Cl)c4Cl)CC3)cc2N1", "note": "[Aripiprazole]", "values": [
      {"measurement": "PLASMA PROTEIN BINDING", "setting": "plasma protein; [5]", "result": ">99", "unit": "%"},
      {"measurement": "HALF-LIFE", "setting": "[1]; [5]", "result": 75, "unit": "h"}
    ]},
    {"compound": "Cc1cccc(C)c1OCC(=O)N[C@@H](Cc1ccccc1)[C@@H](O)C[C@H](Cc1ccccc1)NC(=O)[C@H](C(C)C)N1CCCNC1=O", "note": "[Lopinavir (Kaletra), Lopinavir]", "values": [
      {"measurement": "PLASMA PROTEIN BINDING", "setting": "plasma protein; [4]", "result": "98-99% ^"},
      {"measurement": "HALF-LIFE", "setting": "[1]; [4]", "result": "5 to 6", "unit": "h"}
    ]},
    {"compound": "CCN(CC)CC#CCOC(=O)C(O)(c1ccccc1)C1CCCCC1", "note": "(stereo not shown) [Oxybutynin (Ditropan), Oxybutynin]", "values": [
      {"measurement": "PLASMA PROTEIN BINDING", "setting": "plasma protein; [4]", "result": "91-93% ^"},
      {"measurement": "HALF-LIFE", "setting": "[1]; [4]", "result": "7 to 30", "unit": "h"}
    ]},
    {"compound": "Cc1nc2n(c(=O)c1CCN1CCC(c3noc4cc(F)ccc34)CC1)CCCC2", "note": "[Risperidone]", "values": [
      {"measurement": "HALF-LIFE", "setting": "[1]; [5]", "result": "3 to 20", "unit": "h"}
    ]},
    {"compound": "C/C(=C\\c1csc(C)n1)[C@@H]1C[C@@H]2O[C@]2(C)CCC[C@H](C)[C@H](O)[C@@H](C)C(=O)C(C)(C)[C@@H](O)CC(=O)N1", "note": "[Ixabepilone (Ixempra), Ixabepilone]", "values": [
      {"measurement": "PLASMA PROTEIN BINDING", "setting": "plasma protein; [4]", "result": "67-77% ^"},
      {"measurement": "HALF-LIFE", "setting": "[1]; [4]", "result": 52, "unit": "h"}
    ]},
    {"compound": "CN1C(=O)NC(=O)C(C)(C2=CCCCC2)C1=O", "note": "(stereo not shown) [Hexobarbital]", "values": [
      {"measurement": "PLASMA PROTEIN BINDING", "setting": "plasma protein; [3]", "result": 25, "unit": "%"}
    ]},
    {"compound": "CN1C(C(=O)Nc2ccccn2)=C(O)c2ccccc2S1(=O)=O", "note": "[Piroxicam]", "values": [
      {"measurement": "PLASMA PROTEIN BINDING", "setting": "plasma protein; [6]", "result": 99, "unit": "%"},
      {"measurement": "HALF-LIFE", "setting": "[1]; [6]", "result": 50, "unit": "h"}
    ]},
    {"compound": "Cc1ccc(-c2cc(C(F)(F)F)nn2-c2ccc(S(N)(=O)=O)cc2)cc1", "note": "[Celecoxib]", "values": [
      {"measurement": "PLASMA PROTEIN BINDING", "setting": "plasma protein; [6]", "result": 97, "unit": "%"},
      {"measurement": "HALF-LIFE", "setting": "[1]; [6]", "result": 11, "unit": "h"}
    ]},
    {"compound": "CN(CCOc1ccc(CC2SC(=O)NC2=O)cc1)c1ccccn1", "note": "(stereo not shown) [Rosiglitazone]", "values": [
      {"measurement": "HALF-LIFE", "setting": "[1]; [6]", "result": "3 to 4", "unit": "h"}
    ]},
    {"compound": "CCCC(C)(COC(N)=O)COC(=O)NC(C)C", "note": "(stereo not shown) [Carisoprodol]", "values": [
      {"measurement": "PLASMA PROTEIN BINDING", "setting": "plasma protein; plasma", "result": 60, "unit": "%"}
    ]},
    {"compound": "CC/C(=C(\\c1ccccc1)c1ccc(OCCN(C)C)cc1)c1ccccc1", "note": "[Tamoxifen]", "values": [
      {"measurement": "PLASMA PROTEIN BINDING", "setting": "plasma protein; [2]", "result": 99, "unit": "%"},
      {"measurement": "PLASMA PROTEIN BINDING", "setting": "plasma protein; [6]", "result": 99, "unit": "%"},
      {"measurement": "PLASMA PROTEIN BINDING", "setting": "plasma protein; [5]", "result": 99, "unit": "%"},
      {"measurement": "PLASMA PROTEIN BINDING", "setting": "plasma protein; [4]", "result": 99, "unit": "%"},
      {"measurement": "HALF-LIFE", "setting": "[1]; [2]", "result": "~120 to 170", "unit": "h"},
      {"measurement": "HALF-LIFE", "setting": "[1]; [6]", "result": "120 to 170", "unit": "h"},
      {"measurement": "HALF-LIFE", "setting": "[1]; [5]", "result": "120 to 170", "unit": "h"},
      {"measurement": "HALF-LIFE", "setting": "[1]; [4]", "result": "120 to 170", "unit": "h"}
    ]},
    {"compound": "C=C(C)[C@H]1CC=C(C)CC1", "note": "[Limonene]", "values": [
      {"measurement": "HALF-LIFE", "setting": "[1]; [3]", "result": "12 to 24", "unit": "h"}
    ]},
    {"compound": "CC[C@]1(O)C[C@@H]2CN(CCc3c([nH]c4ccccc34)[C@@](C(=O)OC)(c3cc4c(cc3OC)N(C)[C@H]3[C@@](O)(C(=O)OC)[C@H](OC(C)=O)[C@]5(CC)C=CCN6CC[C@]43[C@@H]65)C2)C1", "note": "[Vinblastine (Velbane), Vinblastine]", "values": [
      {"measurement": "PLASMA PROTEIN BINDING", "setting": "plasma protein; [4]", "result": "98-99.7% ^"},
      {"measurement": "HALF-LIFE", "setting": "[1]; [4]", "result": 24.8, "unit": "h"}
    ]},
    {"compound": "NS(=O)(=O)Cc1noc2ccccc12", "note": "[Zonisamide (Zonegran), Zonisamide]", "values": [
      {"measurement": "PLASMA PROTEIN BINDING", "setting": "plasma protein; [4]", "result": "40-60% ^"}
    ]},
    {"compound": "COCCCC/C(=N\\OCCN)c1ccc(C(F)(F)F)cc1", "note": "[Fluvoxamine]", "values": [
      {"measurement": "HALF-LIFE", "setting": "[1]; [2]", "result": "~14 to 16", "unit": "h"},
      {"measurement": "HALF-LIFE", "setting": "[1]; [5]", "result": 15.6, "unit": "h"}
    ]},
    {"compound": "CC(=O)O[C@@]12CO[C@@H]1C[C@H](O)[C@@]1(C)C(=O)[C@H](O)C3=C(C)[C@@H](OC(=O)[C@H](O)[C@@H](NC(=O)OC(C)(C)C)c4ccccc4)C[C@@](O)([C@@H](OC(=O)c4ccccc4)[C@H]21)C3(C)C", "note": "[Docetaxel (Taxotere), Docetaxel]", "values": [
      {"measurement": "PLASMA PROTEIN BINDING", "setting": "plasma protein; [4]", "result": "94-97% ^"},
      {"measurement": "HALF-LIFE", "setting": "[1]; [4]", "result": 11.1, "unit": "h"}
    ]},
    {"compound": "NC(=O)N1c2ccccc2C=Cc2ccccc21", "note": "[Carbamazepine (eg. Tegretol), Carbamazepine]", "values": [
      {"measurement": "PLASMA PROTEIN BINDING", "setting": "plasma protein; [4]", "result": 76, "unit": "%"},
      {"measurement": "HALF-LIFE", "setting": "[1]; [4]", "result": "12 to 17", "unit": "h"}
    ]},
    {"compound": "O=c1[nH]c2ccccc2n1C1CCN(CCCC(c2ccc(F)cc2)c2ccc(F)cc2)CC1", "note": "[Pimozide (Orap), Pimozide]", "values": [
      {"measurement": "HALF-LIFE", "setting": "[1]; [4]", "result": 55, "unit": "h"}
    ]},
    {"compound": "Cc1nc(Nc2ncc(C(=O)Nc3c(C)cccc3Cl)s2)cc(N2CCN(CCO)CC2)n1", "note": "[Dasatinib (Sprycel), Dasatinib]", "values": [
      {"measurement": "PLASMA PROTEIN BINDING", "setting": "plasma protein; [4]", "result": 96, "unit": "%"},
      {"measurement": "HALF-LIFE", "setting": "[1]; [4]", "result": "3 to 5", "unit": "h"}
    ]},
    {"compound": "CCCCNC(=O)NS(=O)(=O)c1ccc(C)cc1", "note": "[Tolbutamide]", "values": [
      {"measurement": "HALF-LIFE", "setting": "[1]; [6]", "result": "4.5 to 6.5", "unit": "h"}
    ]},
    {"compound": "C[C@@H]1C[C@H]2[C@@H]3CCC4=CC(=O)C=C[C@]4(C)[C@@]3(F)[C@@H](O)C[C@]2(C)[C@@]1(O)C(=O)CO", "note": "[Dexmethasone (Decadron), Dexmethasone]", "values": [
      {"measurement": "PLASMA PROTEIN BINDING", "setting": "plasma protein; plasma", "result": 77, "unit": "%"}
    ]}
  ]
}
